One data set relates to rat peritoneum. The data set can be described thus: Intra-peritoneal PDF containing MGO in rats (peritoneal injury). The conditions noted are these: n=6. The format is in vivo, Sprague-Dawley (SD) rats.
The test system of data set [1] is MGO-induced peritoneal fibrosis. Briefly: MGO-induced peritoneal fibrosis in rats, effects of CBR ligands (histology, morphometry). The class given is in vivo, Sprague-Dawley (SD) rats. The settings on record: 1 mg/kg/day in PDF i.p., n=6; for MGO-induced peritoneal thickening: 3 days pretreatment then 10 days with 6 mM MGO, Masson's trichrome. Here is the method:
(§1) All animal experiments were performed following the guidelines of the Institutional Committee for Animal Experimentation of Taipei Veterans General Hospital. Five week-old male Sprague-Dawley (SD) rats were purchased from the Laboratory Animal Center of National Yang-Ming University. Peritoneal dialysis fluid (PDF) was prepared according to Hirahara et al. [10;22], containing 2.5% glucose, 100 mmol/L NaCl, 35 mmol/L sodium lactate, 2 mmol/L CaCl2, and 0.7 mmol/L MgCl2, in a pH of 5.0. To test MGO effects, fifty mL/kg of PDF containing 0, 3, 6, 12 mM MGO (Sigma, St. Louis, Mo., USA) were injected intra-peritoneally for ten consecutive days. Dimethyl sulfoxide (DMSO) (Sigma, St. Louis, Mo., USA) was used as the solvent of MGO. For investigation of the effects of CBR ligands, SD rats were pretreated with PDF containing either a selective CB1R antagonist, AM281 (Alexis Biochemicals, Enzo Life Sciences, Farmingdale, N.Y., USA) (1 mg/kg/day) or a selective CB2R agonist, AM1241 (Sigma, St. Louis, Mo., USA) (1 mg/kg/day) for 3 days followed by continuous treatment of PDF containing respective CBR ligands (AM281 or AM1241) and 6 mM MGO for 10 days. Animals receiving PDF containing DMSO vehicle (without MGO) were used as control (n=6/group). All animals were euthanized at the end of experiments by exsanguinations under general anesthesia.
Certain sections of rat peritoneal tissues were frozen at −80° C. for immunofluorescent analysis, while the remainder were fixed in a neutral formalin solution and then embedded in paraffin for histological analysis. For immunofluorescent staining of CBR, rat brain and spleen were used as the positive control of CB1R and CB2R, respectively. For peritoneal thickness quantification, parietal peritoneum sized 1.0×0.5 cm were sampled from four separate peritoneal sites of each rat, including right ventral, left ventral, right lateral, and left lateral abdomen. For each sampling site, the peritoneal thickness was averaged from 15 evenly measured points. Tissue sections were stained with Masson's trichrome to quantify peritoneal fibrosis. The number of mesothelial cells was determined by morphometric method. The hematoxylin and eosin-stained sections were digitalized using an Aperio ScanScope slide scanner (Aperio, San Diego, Calif., USA) at its highest resolution. The mean mesothelial cells per mm surface of peritoneal membrane were counted from 15 points in each peritoneal tissue section from four separate peritoneal areas per animal. The peritoneal angiogenesis was quantified as described by Patel et al.. […] The mean vessels per mm peritoneal membrane were counted from 15 points in each peritoneal tissue section from four separate peritoneal areas per animal.

In data set [2] the test system is human peritoneal mesothelial cells (HPMC). The data set can be described thus: PCR analysis of type I collagen in TGF-β1-treated HPMC. The settings on record: low TGF-β1 concentrations (0.01-0.05 ng/mL), differences not statistically significant. The class given is cell-based. As for the experimental part: (§2) The MeT-5A human mesothelial cell line, obtained from the American Type Culture Collection (ATCC, Manassas, Va., USA), was cultured in DMEM (Biological Industries, Israel) containing 15% fetal bovine serum (Thermo Scientific, Waltham, Mass., USA), and 1% penicillin/streptomycin/L-glutamine (Biological Industries, Israel). The primary culture of human peritoneal mesothelial cells (HPMC) were prepared as previously described. All patient materials were processed following the ethics regulations of the Institutional Review Board of Taipei Veterans General Hospital.
(§3) To assess the effects of CB1R antagonist on mesothelial cells, we pretreated the MeT-5A cells and RPMC with 5 μM of AM281 for 1 hour, and followed by simultaneous AM281 and TGF-β1 (R&D systems, Minneapolis, Minn., USA) treatment for 5 days. Various TGF-β1 concentrations (0.1 to 1.0 ng/mL) were used. In the CB2R experiment, AM1241 was used instead to test MeT-5A cells and HPMC.
For mRNA expression analysis of peritoneal tissue TGF-β1, VEGF, and Snail, the rat peritoneum was resected and incubated with trypsin at 37° C. for 30 minutes. The mesothelium was then scratched from peritoneal surface and collected for reverse transcription-polymerase chain reaction (RT-PCR). In the mesothelial cell culture, the mRNA expression of CB1R, CB2R, and type I collagen were also assessed by the PCR analysis. […]

In data set [3] the test system is CB1R and CB2R expression in MeT-5A cells. Briefly: PCR assessment of CB1R and CB2R expression after TGF-β1 treatment. The class given is cell-based, human. The conditions noted are these: exogenous TGF-β1, RT-PCR. Here is the method: as §2
(§4) For mRNA expression analysis of peritoneal tissue TGF-β1, VEGF, and Snail, the rat peritoneum was resected and incubated with trypsin at 37° C. for 30 minutes. The mesothelium was then scratched from peritoneal surface and collected for reverse transcription-polymerase chain reaction (RT-PCR). In the mesothelial cell culture, the mRNA expression of CB1R, CB2R, and type I collagen were also assessed by the PCR analysis. Total RNA was extracted with TRIzol (Invitrogen, Carlsbad, Calif., USA). Contaminated genomic DNA was removed with RNAse-free DNAse (Ambion, Austin, Tex., USA) following the manufacturer's protocol. First-strand cDNA was synthesized from total RNA with Superscript™ first-strand cDNA synthesis system for RT-PCR (Invitrogen, Carlsbad, Calif., USA) using Oligo(dT) as primers. GAPDH was used as control. […]

The conditions of data set [4]: humans, long-term basis; cited from earlier work.
For a further data set, the system named is TGF-β1-activated PI3K. Briefly: Western blot of PI3K in MeT-5A cells. The class given is cell-based, human. The conditions noted are these: p110 catalytic subunit. As for the experimental part:
as §3
Phosphatidyl inositol 3 kinase (PI3K) activity in the MeT-5A cells was assessed by Western blot. Cell lysates were subjected to SDS-PAGE and probed with primary antibodies against the p110 catalytic subunit of PI3K (Upstate Millipore, Billerica, Mass., USA) or β-actin (Amersham Life Science, Buckinghamshire, UK).

For data set [5], the system named is rat peritoneal mesothelial cells (RPMC). Briefly: TGF-β1-treated rat peritoneal mesothelial cell (RPMC) culture: morphology. The class given is cell-based. The conditions noted are these: 5 μM, 1 hour pretreatment, then with TGF-β1 for 5 days. Here is the method: The primary culture of rat peritoneal mesothelial cells (RPMC) were isolated from 5-week-old male SD rats. Trypsin-EDTA (Gibco, Grand Island, N.Y., USA) (1.25%; 100 mL/kg) was injected intra-peritoneally and was then aspirated after a 2-hour dwelling. The aspirate was centrifuged for 10 minutes at 1500 rpm, and was washed with phosphate buffered saline, and then cultured in DMEM containing 10% fetal bovine serum, and 1% penicillin/streptomycin/L-glutamine.
as §3

Data set [6] has as its system MeT-5A human mesothelial cell line. Briefly: TGF-β1-treated MeT-5A mesothelial cells: morphology, immunofluorescent staining. The class given is cell-based. Here is the method:
as §2, §3
For immunofluorescent studies, we grew mesothelial cells in slide flasks (Lab-Tek II; Nalge Nunc. Naperville, Ill., USA).
Cells were observed using a confocal LASER microscope (Leica, Wetzlar, Germany), and fluorescent intensity was analyzed using an image-processing software (AlphaEaseFC 4.0, Alpha Innotech, Santa Clara, Calif., USA). The cytoplasmic fluorescent intensity of individual cell is defined as integrated density value (IDV) of selected cytoplasmic area; the average fluorescent intensity of an image field is defined as average density value (ADV=total IDV/total cytoplasmic area).

For data set [7], the system named is TGF-β1, VEGF, and Snail mRNA in rat peritoneal tissue. The data set can be described thus: RT-PCR of rat peritoneal tissue after MGO treatment. The class given is in vivo, Sprague-Dawley (SD) rats. The settings on record: representative PCR. As for the experimental part:
as §1
as §4, with “protocol.” for “protocol. First-strand cDNA was synthesized from total RNA with Superscript™ first-strand cDNA synthesis system for RT-PCR (Invitrogen, Carlsbad, Calif., USA) using Oligo(dT) as primers. GAPDH was used as control.”

Setting [8] is: in the presence of TGF-β1, immunofluorescent staining.

Experimental for rat peritoneum: All animal experiments were performed following the guidelines of the Institutional Committee for Animal Experimentation of Taipei Veterans General Hospital. Five week-old male Sprague-Dawley (SD) rats were purchased from the Laboratory Animal Center of National Yang-Ming University. Peritoneal dialysis fluid (PDF) was prepared according to Hirahara et al. [10;22], containing 2.5% glucose, 100 mmol/L NaCl, 35 mmol/L sodium lactate, 2 mmol/L CaCl2, and 0.7 mmol/L MgCl2, in a pH of 5.0. To test MGO effects, fifty mL/kg of PDF containing 0, 3, 6, 12 mM MGO (Sigma, St. Louis, Mo., USA) were injected intra-peritoneally for ten consecutive days. Dimethyl sulfoxide (DMSO) (Sigma, St. Louis, Mo., USA) was used as the solvent of MGO. […]
Certain sections of rat peritoneal tissues were frozen at −80° C. for immunofluorescent analysis, while the remainder were fixed in a neutral formalin solution and then embedded in paraffin for histological analysis. […] For peritoneal thickness quantification, parietal peritoneum sized 1.0×0.5 cm were sampled from four separate peritoneal sites of each rat, including right ventral, left ventral, right lateral, and left lateral abdomen. For each sampling site, the peritoneal thickness was averaged from 15 evenly measured points. […] The number of mesothelial cells was determined by morphometric method. […]

With `CC(=O)C=O` [MGO, methylglyoxal], the peritoneal thickness result with rat peritoneum (PDF containing 0, 3, 6, 12 mM MGO i.p. for ten consecutive days) is recorded as “significant increase”. Moreover, the surface mesothelial cells entry with rat peritoneum (higher concentration of MGO (6-12 mM), i.p. ten days) is on record as “prominent loss”.
With `CN1CCCCC1Cn1cc(C(=O)c2cc([N+](=O)[O-])ccc2I)c2ccccc21` (stereo not drawn) [AM1241, (2-iodo-5-nitrophenyl)-[1-[(1-methylpiperidin-2-yl)methyl]indol-3-yl]methanone], the MGO-induced peritoneal thickening result in data set [1] is “significantly attenuated”. Further, the “type I collagen synthesis” value in [2] is reported as “tended to suppress”.
“TGF-β1: exogenous TGF-β1 (R&D systems) used to treat mesothelial cells”: in [3], the “CBR levels (CB1R, CB2R mRNA)” value was “no significant effect”.
As for `C=C(C)[C@@H]1CCC(C)=C[C@H]1c1c(O)cc(CCCCC)cc1O` [cannabidiol], in [4], the “tolerability on long-term administration” value is “well-tolerated without adverse effects”.
For `Cc1c(C(=O)NN2CCOCC2)nn(-c2ccc(Cl)cc2Cl)c1-c1ccc(I)cc1` [AM281, N-(morpholin-1-yl)-1-(2,4-dichlorophenyl)-5-(4-iodophenyl)-4-methyl-1H-pyrazole-3-carboxamide], the “TGF-β1-activated PI3K” value in the data set with TGF-β1-activated PI3K was “suppressed”. Further, the “MGO-induced mesothelial cell detachment” value in data set [1] (6 mM MGO 10 days) was “attenuated”. For the same molecule, in [1] (6 mM MGO 10 days, α-SMA staining), the MGO-induced angiogenesis result is reported as “attenuated”. Further, in data set [1], the MGO-induced peritoneal thickening entry is on record as “significantly attenuated”. Besides, in data set [5], the TGF-β1-induced cell elongation result was “reduces”. Besides, the TGF-β1-induced cell elongation result in data set [6] (5 μM, 1 hour pretreatment, then with TGF-β1 for 5 days) is “reduces”. Moreover, in data set [6] (setting [8]), the “expression of E-cadherin” value is “preserving”, the “expression of cytokeratin 8/18” value is “preserving” and the “type I collagen synthesis” value is listed as “inhibited”. For the same molecule, in data set [7], the “up-regulated Snail after MGO treatment” value is on record as “attenuated”, the “up-regulated TGF-β1 after MGO treatment” value is recorded as “attenuated” and the “up-regulated VEGF after MGO treatment” value is “attenuated”.

Values taken from US20140142106A1, “METHOD FOR TREATING PERITONEAL FIBROSIS” (TAIPEI VETERANS GENERAL HOSPITAL, priority 2012, published 2014).
